{
  "source": "patent US10023551B2",
  "about": "“Glutathione-cleavable prodrug and methods of use thereof” (GEORGETOWN UNIVERSITY, priority 2015, dated 2018)",
  "key": {"MCF10A [1]": {"test_system": "MCF10A", "test": "Inhibition of cell proliferation in normal cells (MCF10A)", "format": "cell-based", "description": "(§1) To evaluate the toxicity of YK-5-252 in cells, the inhibition of cell proliferation was measured in normal cells (MCF10A) and TNBC cells (MDA-MB-231). […] This lack of selectivity can be attributed to the toxicity of YK-5-252."}, "MDA-MB-231 [2]": {"test_system": "MDA-MB-231", "test": "Inhibition of cell proliferation in TNBC cells (MDA-MB-231)", "format": "cell-based", "description": "as §1"}, "tubulin polymerization": {"test_system": "tubulin polymerization", "test": "Immunofluorescence staining of tubulin in TNBC cells", "format": "cell-based", "settings": "50 nM, MDA-MB-231", "description": "To determine the biological effect of YK-5-252, its mechanism of action was determined through immunofluorescence staining."}, "[3]": {"test": "Fluorescence properties and activation via GSH cleavage", "format": "physicochemical", "settings": "for NIR fluorescence emission: without GSH, excitation of 492 nm", "description": "FIG. 11 contains emission spectra of compounds described herein.\nThe fluorescence properties and ability to be activated via GSH cleavage of YK-5-252 were evaluated. DCM-NH2 has a NIR fluorescence emission at 650 nm with an excitation of 492 nm (FIG. 11, panel a). […] This can be due to the loss of electron donating ability of the amine group when attached to the linker. To ascertain the stability of YK-5-252 toward GSH, fluorescence was monitored in the presence of GSH."}, "MDA-MB-231 [4]": {"test_system": "MDA-MB-231", "test": "FACS analysis of cell population containing released DCM-NH2, TNBC cells", "format": "cell-based", "settings": "treated 48 hours", "description": "(§2) To further investigate the in vivo activation of YK-5-252, fluorescence-activated cell sorting (FACS) was used. Cells were treated with YK-5-252 for 48 hours. After treatment, FACS analysis was conducted to determine how much of the cell population has DCM-NH2 present. […] HPLC analysis confirmed that CA-4 release is concurrent with the release of DCM-NH2 in a traceless manner (FIG. 14, panels (a-d)). The difference in prodrug cleavage in cancer cells versus normal cells is due to the higher levels of GSH produced in cancer cells."}, "MCF10A [5]": {"test_system": "MCF10A", "test": "FACS analysis of cell population containing released DCM-NH2, normal cells", "format": "cell-based", "settings": "treated 48 hours", "description": "as §2"}, "[6]": {"test": "HPLC analysis of cleavage by glutathione", "format": "physicochemical", "settings": "YK-5-252 200 μM; GSH 50 mM", "description": "FIG. 14 contains HPLC traces. Panel (a) is a trace of YK-5-252 (200 μM). Panel (b) is a trace of YK-5-252 (200 μM) and glutathione (GSH; 50 mM). Panel (c) is a trace of CA-4 (200 μM). Panel (d) is a trace of DCM (200 μM). […] After treatment with GSH (Panel (b)), the YK-5-252 peak at 10.5 minutes disappeared while two new peaks at 6.8 and 8.6 minutes appears which corresponds to the release of CA-4 and DCM-NH2, respectively (Panels (c) and (d)).\nas §2"}, "MDA-MB-231 versus MCF10A": {"test_system": "MDA-MB-231 versus MCF10A", "test": "Live cell imaging by confocal microscopy", "format": "cell-based", "settings": "1 micromolar, 1 hour", "description": "FIG. 12, panel (a) contains a confocal microscopy image of MDA-MB-231 cells (triple negative breast cancer cells) treated with YK-5-252 (1 micromolar) for 1 hour. Panel (b) contains a nuclear staining image of the cells with Hoesht dye. Panel (c) contains a merged image of panels (a) and (b). Panel (d) contains a confocal microscopy image of MCF10A (normal breast cells) treated with YK-5-252 (1 micromolar) for 1 hour. Panel (e) contains a nuclear stained image of the cells with Hoescht dye. Panel (f) contains a merged image of panels (d) and (e).\nTo test the ability of YK-5-252 to selectively release CA-4 in cancer cells, the presence of DCM was monitored through confocal microscopy. […] Also this experiment confirms the utility of YK-5-252 to monitor drug delivery and release in vivo."}, "[7]": {"test_system": "MCF-7 and MCF-10A cell lines", "test": "In vitro cytotoxicity assay", "format": "cell-based", "settings": "FIGS. 7 and 8", "text": "FIG. 7 contains plots for use in calculating the IC50 values for YK-5-252 and CA-4 in a MCF-7 cell line.\nFIG. 8 contains plots for use in calculating the IC50 values for YK-5-252 and CA-4 in a MCF-10A cell line.\nYK-5-252, the designed drug with linked disulfide bond described above, can be cleaved by intracellular glutathione (GSH). Cancer cells have a much higher GSH concentration than normal cells; therefore, this GSH-cleavable prodrug holds promising therapeutic efficacy. Near-infrared photons can deeply penetrate the skin and tissue with minimal damage. […] Due to its NIR fluorescent property, the compound also offers an excellent ability for tracking drug release in vivo."}},
  "note": "Read-outs that look alike come from different tables or passages of the source.",
  "data": [
    {"smiles": "COc1ccc(/C=C\\c2cc(OC)c(OC)c(OC)c2)cc1O", "note": "[CA-4, combretastatin A-4, reference compound]", "values": [
      {"measurement": "GI50", "setting": "MCF10A [1]; MCF10A normal breast cells, read-out: GI50 (Table 1)", "value": "< 0.001", "unit": "nM"},
      {"measurement": "GI50", "setting": "MCF10A [1]; normal cells (MCF10A), read-out: GI50", "value": "< 0.001", "unit": "nM"},
      {"measurement": "GI50", "setting": "MDA-MB-231 [2]; MDA-MB-231 TNBC cells, after 72 hours of treatment, read-out: GI50 (Table 1)", "value": 2.81, "unit": "nM"},
      {"measurement": "GI50", "setting": "MDA-MB-231 [2]; TNBC cells (MDA-MB-231), read-out: GI50", "value": 28.1, "unit": "nM"},
      {"measurement": "disruption of tubulin polymerization", "setting": "tubulin polymerization; 1 hour", "value": "completely inhibited tubulin polymerization"}
    ]},
    {"smiles": "N#CC(C#N)=C1C=C(/C=C/c2ccc(N)cc2)Oc2ccccc21", "note": "[DCM-NH2, (E)-2-(2-(4-aminostyryl)-4H-chromen-4-ylidene)malononitrile]", "values": [
      {"measurement": "NIR fluorescence emission", "setting": "[3]", "value": 650, "unit": "nm"}
    ]},
    {"smiles": "COc1ccc(/C=C\\c2cc(OC)c(OC)c(OC)c2)cc1OC(=O)OCCSSCCOC(=O)Nc1ccc(/C=C/C2=CC(=C(C#N)C#N)c3ccccc3O2)cc1", "note": "[YK-5-252]", "values": [
      {"measurement": "GI50", "setting": "MCF10A [1]; Homo sapiens, MCF-10A, MCF10A normal breast cells, read-out: GI50 (Table 1)", "value": 19.2, "unit": "nM"},
      {"measurement": "GI50", "setting": "MCF10A [1]; Homo sapiens, MCF-10A, normal cells (MCF10A), read-out: GI50", "value": "~19.2", "unit": "nM"},
      {"measurement": "GI50", "setting": "MDA-MB-231 [2]; Homo sapiens, MDA-MB-231 TNBC cells, after 72 hours of treatment, read-out: GI50 (Table 1)", "value": 40.3, "unit": "nM"},
      {"measurement": "GI50", "setting": "MDA-MB-231 [2]; Homo sapiens, TNBC cells (MDA-MB-231), read-out: GI50", "value": 40.3, "unit": "nM"},
      {"measurement": "cells containing DCM-NH2", "setting": "MDA-MB-231 [4]", "value": 72, "unit": "%"},
      {"measurement": "cells containing DCM-NH2 (the fluorophore)", "setting": "MCF10A [5]", "value": "about 5%"},
      {"measurement": "disruption of tubulin polymerization", "setting": "tubulin polymerization; 1 hour", "value": "did not cause disruption of tubulin polymerization"},
      {"measurement": "disruption of tubulin polymerization", "setting": "tubulin polymerization; 6 hours", "value": "began to disrupt tubulin polymerization"},
      {"measurement": "fluorescence emission in the presence of GSH", "setting": "[3]; GSH 250 mM, pH 8, DMSO/PBS 50/50", "value": 650, "unit": "nm"},
      {"measurement": "NIR fluorescence emission", "setting": "[3]", "value": "no NIR emission"},
      {"measurement": "prodrug HPLC peak after treatment with GSH", "setting": "[6]", "value": "disappeared"},
      {"measurement": "fluorescence in TNBC cells versus normal breast cells", "setting": "MDA-MB-231 versus MCF10A", "value": "higher quantities"},
      {"measurement": "toxicity compared with parent drug", "setting": "[7]", "value": "much less toxic than its linked parent drug"}
    ]}
  ]
}
